Results as given in patent US20250251402A1, “METHODS OF DETECTING MOLECULAR AGGREGATES USING IMAGE CORRELATION SPECTROSCOPY (ICS)” (The General Hospital Corporation, priority 2022, published 2025).

What was measured:
Type in all cases: cell-based
[1] = tested on: HCC1937 cells; assay: 53BP1-mApple condensate anisotropy (homo-FRET) and intensity in HCC1937 cells
Description: All fluorescence imaging was performed on an Olympus FV1000 multiphoton/confocal microscope. Anisotropy measurements were performed through custom modifications to the imaging system as previously described (30). Briefly, linear polarization of two photon excitation light at 910 nm (MaiTai femtosecond laser, Spectra Physics) was controlled by a glan-thompson prism and half wave plate. […] was collected in orthogonal orientations through two detectors, parallel and perpendicular to excitation polarization, through a polarizing beam splitter that replaced a dichroic mirror in the emission filter cube. The alignment and detector gain and noise were validated each imaging session through measurements of a standard slide. Images were taken with an Olympus 25× XLPlan N objective, NA 1.05, and 3× digital zoom. Confocal imaging was performed with an Olympus XLUMPlanFL N 20× objective, NA 1.00 with chromatic correction, and 3× digital zoom.
Cells were grown on 12 mm round, uncoated, sterilized glass coverslips in 24-well plates for 24 hours. Cells were treated with PARPi and 100 μM TMZ for 1 hour or 10 nM GMX1778 overnight followed by 100 μM TMZ for 1 hour. TMZ was added to stimulate new DNA damage induced condensates in the presence of PARPi or NAD″ depletion. Cells were then transferred to the microscope for anisotropy imaging. Images were analyzed in MATLAB. Nuclei were segmented through intensity thresholding and condensates were segmented through further intensity thresholding with a higher threshold. Values of segmented nuclei and condensates were determined through the regionprops function. Segmentation was corrected through area restrictions to ensure that regions of interest were isolated condensates. The thresholding parameters were consistent throughout experiments. The average intensity and anisotropy of each segmented nuclei or condensate was then calculated. Data were plotted in Prism and analysis performed in Prism or Excel.

[2] = tested on: SKOV3 cells; assay: γH2AX immunofluorescence in SKOV3 cells (intensity, Imaris Spots, ICS TNoP and DA)
Text: (§1) For the ICS analysis, nuclei were segmented from the DAPI channel using a watershed approach in MATLAB. Briefly, we applied a difference of gaussians for size-based feature extraction of nuclei in the image (upper gaussian σ=100, lower gaussian σ=2-5 dependent on cell size). This feature enhanced image was then binarized to create a primary mask (using the function imbinarize) and connected components under 100 pixels were removed (using the function bwareaopen). We then created a distance transform of the resulting binary image (using the function bwdist). Seed points were determined by finding the regional maximum of a gaussian filtered image, with a gaussian σ of appropriate size for seed point detection (σ×7 or 8 dependent on cell size). The seed points were applied to the distance transform, and we applied the watershed function to the resulting image to obtain masks for each nucleus (extracted using the function regionprops).
(§2) Using the nucleus masks, we performed ICS analysis on the antibody-stained channel, within size limitations for a nucleus (objects >400 and <2400 pixels). Intensity, DA and TNOP were calculated for each cell. In this analysis, since the ROI is defined by the nucleus mask (segmented from nuclear signal using DAPI staining), TNoP represents the total number of particles per nucleus, with the image area being the number of pixels in each nuclear mask.
(§3) Measurements across experiments were normalized by the control in each dataset. […] Data were plotted in Prism and statistical analysis was performed in Excel.
(§4) Imaris spots analysis were performed with Imaris 9.8 with background subtraction, using a spot size of 1 μm that was measured from the smallest distinguishable foci from the control image. For images with multiple nuclei, ImarisCell was used with the detection type “cell and vesicles”, where the nucleus in the DAPI channel was modelled as the “cell” and antibody-labeled foci were modelled as the “vesicles”. This enabled us to count the number of foci per nucleus for multiple cells. In each dataset, the automatic “quality” threshold was determined from the control image and the same threshold was used for every image in the dataset to be able to compare the outputs across datasets. Similar to the ICS analysis, only cells with an area between 400-2400 voxels were included for analysis.
(§5) All chemicals were purchased from Sigma unless otherwise noted. All drugs were purchased from Selleck Chemicals. Cells were cultured in media supplemented with 10% fetal bovine serum and 1% penicillin/streptomycin. OVCA429 were originally obtained from Dr. Michael Birrer and cultured in DMEM. SKOV3 was obtained from ATCC and cultured in RPMI. For MMS treatment, cells were incubated for 6 hours before fixation with 4% formaldehyde, whereas for treatment with PARP inhibitors, cells were incubated for 24 hours before fixation.
(§6) Cells were plated in 8-well slides (Fisher) to achieve 50% confluence overnight. Cells were then treated and fixed with 4% formaldehyde in PBS at room temperature for 10 minutes. Antibody staining was performed according to the manufacturers protocol (Cell Signaling Technologies or Abcam). Primary antibodies used were γH2AX (CST, #2577), RPA1 (CST, #2267) and RAD51 (Abcam, 63801), with Anti-rabbit IgG Fab2 Alexa Fluor 647 (CST, #4414) as the secondary fluorescent antibody. After antibody labeling, prolong gold with DAPI (CST) was added and samples were stored for up to 1 week prior to imaging. Confocal imaging was performed on an Olympus FV1000 multiphoton/confocal microscope using an Olympus XLUMPlanFL N 20× objective, NA 1.00 with chromatic correction, and 3× digital zoom. DAPI was excited with a 405 nm laser, while Alexa Fluor 647 was excited with a 635 nm laser. A multiband (DM 405/488/561/633 nm) dichroic mirror was used to direct the excitation laser and collect emission. […]

[3] = tested on: OVCA429 cells; assay: γH2AX immunofluorescence in OVCA429 cells (intensity, Imaris Spots, ICS TNoP and DA)
Text: as §1, §2, §3, §4, §5, §6

[4] = tested on: 53BP1; assay: Autocorrelation (ICS DA) of 53BP1 in phenotypic screen images, cell line not specified; conditions: at least one cell line of A549, WPMY-1, HepG2
Description: Images from the original study (8) were accessed through the Image Data Resource (32) API on the Open Microscopy environment. Nuclei were segmented using StarDist (33) on the BFP channel image. Segmented nuclei were then analyzed by image correlation spectroscopy autocorrelation (34) in the TP53BP1 channel and the average degree of aggregation (DA) was calculated. […] Active compounds were defined as having significant (p<0.05) non-zero linear regressions, either negative or positive. The activity score was determine by summing the direction of each active compound and dividing by the total number of compounds in the MoA.
(§7) We accessed the original phenotypic screen (8) images through the IDR API on the Open Microscopy server. The screen contained three different cell lines that had endogenous TP53BP1 labeled GFP as a marker protein. We first identified all the images from these three cell lines (>60,000 images in total), then segmented the nuclei of each cell using the BFP channel image. Segmented nuclear regions were then transferred to the TP53BP1 image and image autocorrelation was performed on each nucleus. The degree of aggregation (DA, a measurement of fluorophore clustering) for each nucleus was then averaged to produce an overall image 53BP1 DA that corresponded to the compound and compound concentration. The dataset contained repeats of four different doses for each compound. The activity of each compound in each cell line was then determined by fitting a linear regression to the DA as a function of compound concentration. The slope and significance versus the null hypothesis (slope equal to zero) of DA vs. concentration was then determined. Active compounds were defined as those having a significant (p<0.05) slope of DA vs. concentration.
53BP1 DA is a measure of protein labeled fluorophore clustering within the nucleus. […] Yet, given the highly characterized role of 53BP1 in the DNA damage response (9), recruitment to DNA damage response foci is likely the most prominent driver of measured activity.

[5] = tested on: WPMY-1 cells; assay: Autocorrelation (ICS DA) of 53BP1 in phenotypic screen images, WPMY-1
Description: (§8) Images from the original study (8) were accessed through the Image Data Resource (32) API on the Open Microscopy environment. Nuclei were segmented using StarDist (33) on the BFP channel image. Segmented nuclei were then analyzed by image correlation spectroscopy autocorrelation (34) in the TP53BP1 channel and the average degree of aggregation (DA) was calculated.
as §7, with “determined.” for “determined. Active compounds were defined as those having a significant (p<0.05) slope of DA vs. concentration.”
(§9) 53BP1 DA is a measure of protein labeled fluorophore clustering within the nucleus. […] Increases in 53BP1 recruitment can occur either through induction of DNA damage or altered repair pathways, such as shifting the response from homologous recombination to non-homologous end joining.

[6] = tested on: HT1080 cells; assay: γH2AX immunofluorescence ICS DA and nuclear intensity in HT1080 cells; conditions: HT1080, 10 nM GMX1778 for 24 hours vs control
Description: Cells were plated in 8-well […] slides (Thermo or Ibidi) to achieve 50% confluence overnight. Cells were then treated and fixed with 4% paraformaldehyde in PBS at room temperature for 10 minutes. Antibody staining was performed according to the manufacturers protocol. Following fluorescent secondary antibody labeling, prolong gold with DAPI (Cell Signaling Technologies) was added and samples were stored for up to 1 week prior to imaging.
ICS analysis was performed in MATLAB as previously described (41). Briefly, nuclei were segmented from the DAPI channel with the MATLAB function, imbinarize, converting the greyscale image to a binary dependent on an automatically defined threshold. The MATLAB function, regionprops, was used to identify single nuclei as objects. Each nucleus was used as a mask to perform ICS analysis on the antibody-stained channel, within size limitations for a nucleus (objects >400 and <3000 pixels). To ensure the analysis of antibody stained nuclei, nuclei under an average intensity of 200 au after background subtraction were excluded. The spatial autocorrelation functions were calculated using Fourier methods, then fit to a 2D Gaussian using a nonlinear least-squares algorithm (41). Using the outputs of the fitting, the mean number of independent emitting fluorescent entities per focal spot area and subsequently the DA were determined (59). DA measurements across experiments were normalized by the control in each dataset. […] Any DA values exceeding 3 standard deviations from the mean were defined as incorrectly segmented and removed. Data were plotted in Prism and analysis performed in Prism or Excel.

[7] = tested on: A549 cells; assay: Autocorrelation (ICS DA) of 53BP1 in phenotypic screen images, A549
Description: as §8
as §7, with “determined.” for “determined. Active compounds were defined as those having a significant (p<0.05) slope of DA vs. concentration.”
as §9

[8] = tested on: HepG2 cells; assay: Autocorrelation (ICS DA) of 53BP1 in phenotypic screen images, HepG2
Description: as §8
as §7, with “determined.” for “determined. Active compounds were defined as those having a significant (p<0.05) slope of DA vs. concentration.”
as §9

[9] = HCC1937, 10 nM GMX1778 overnight then 100 μM TMZ 1 hour

O=C(c1cc(Cc2n[nH]c(=O)c3ccccc23)ccc1F)N1CCN(C(=O)C2CC2)CC1 [olaparib] was tested. Which “53BP1-mApple condensate anisotropy vs control” value ([1]; HCC1937, 1 μM PARPi and 100 μM TMZ for 1 hour) did it give?
Its value is “significantly lower condensate anisotropy compared to control”.

What about the “ICS TNoP of γH2AX, dose dependence” value ([2]; SKOV3) of the same compound?
Its value is “slight TNOP dose dependence”.

What about the “Number of γH2AX spots determined by Imaris” value ([2]; SKOV3, 100 μM olaparib vs 10 μM dose) of the same compound?
The value was “not significant compared to the 10 μM dose”.

And the “ICS DA of γH2AX, dose dependence” value ([3]; OVCA429)?
The value was “full dose dependent increases in γH2AX clustering”.

And the “Imaris Spots analysis of γH2AX, dose dependence” value ([3]; OVCA429)?
Its value is “able to capture olaparib dose dependence”.

What about the “γH2AX intensity, dose dependence” value ([3]; OVCA429, PARP inhibitors) of the same compound?
The value was “did not show a dose dependence”.

How did the “53BP1 DA vs. concentration regression (53BP1 recruitment)” value (“53BP1 DA vs. concentration regression” for short) [4] turn out when O=c1[nH]cnc2ccccc12 [4-HQN] was run?
The value was “increased 53BP1 recruitment”.

Which “53BP1 DA vs. concentration regression” value [5] does the source give for Cc1c(-c2cnccn2)ssc1=S [oltipraz] here?
The value was “two of the strongest 53BP1 recruitment-reducing compounds”.

Which “53BP1-mApple condensate anisotropy vs control” value [1, 9] does the source give for N#CN=C(NCCCCCCOc1ccc(Cl)cc1)Nc1ccncc1 [GMX1778] here?
The value was “significantly lowered condensate anisotropy”.

What about the “53BP1-mApple condensate intensity vs control” value [1, 9] of the same compound?
The value was “without impacting condensate intensity”.

And the “γH2AX ICS DA” value [6]?
Its value is “significantly increased”.

What about the “γH2AX levels (nuclear intensity)” value [6] of the same compound?
Its value is “no significant difference”.

Which results are given for NC(=O)c1cccc(N)c1 [3-aminobenzamide]?
53BP1 DA vs. concentration regression (53BP1 recruitment) [7]: reduced 53BP1 recruitment; 53BP1 DA vs. concentration regression (53BP1 recruitment) [8]: reduced 53BP1 recruitment; 53BP1 DA vs. concentration regression (53BP1 recruitment) [5]: reduced 53BP1 recruitment

For Cc1nc(NC(=O)N2CCC[C@H]2C(N)=O)sc1-c1csc(C(C)(C)C)n1 [A66], which “53BP1 DA vs. concentration regression” value [5] is on record?
The value was “strong inducers of 53BP1 recruitment”.

Which “53BP1 DA vs. concentration regression” value [5] does the source give for S=P(N1CC1)(N1CC1)N1CC1 [thiotepa] here?
Its value is “strong inducers of 53BP1 recruitment”.

With CCCOc1ccc(CCc2nc3cc(-c4c(C)noc4C)ccc3n2CCN2CCOCC2)cc1 [PF CBP1] as the compound, how does the “53BP1 DA vs. concentration regression” value [5] read?
The value was “strong activity”.

Which “53BP1 DA vs. concentration regression” value [5] does the source give for Cc1cc(C)c(C)c(S(=O)(=O)Nc2ccc(N3CC[C@H](C(=O)O)C3)c3ccccc23)c1C [RA839] here?
The value was “two of the strongest 53BP1 recruitment-reducing compounds”.

O=C(CCCCCCC(=O)Nc1ccccc1)NO [SAHA] was tested. Which “53BP1 DA vs. concentration regression” value [5] did it give?
The value was “strong inducers of 53BP1 recruitment”.

Which “53BP1 DA vs. concentration regression” value [7] does the source give for NC(=O)c1cccc(-c2cc(Nc3ccc(OC(F)(F)F)cc3)ncn2)c1 [GNF 2] here?
Its value is “reduced 53BP1 recruitment”.

And the “53BP1 DA vs. concentration regression” value [8]?
The value was “reduced 53BP1 recruitment”.

What does the source list for COc1ccccc1S(=O)(=O)Nc1ccc2c(c1)CN(C)C(=O)N2 [PFI-1]?
53BP1 DA vs. concentration regression (53BP1 recruitment) [7]: strong positive activity; 53BP1 DA vs. concentration regression (53BP1 recruitment) [8]: strong positive activity
